Measured values as given in patent publication US20150313225A1.
Where two headings read alike, the source gives them in different places.

Legend:
Format in all cases: cell-based
Pyricularia oryzae = assay: microbe, parasite or virus in culture; conditions: Pyricularia oryzae, 168 h, read-out: Observed efficacy
Phytophthora infestans = assay: microbe, parasite or virus in culture; conditions: Phytophthora infestans, 168 h, read-out: Observed efficacy
Botrytis cinerea = assay: Microtiterplate test against the grey mold Botrytis cinerea (Botrci); conditions: Botrytis cinerea, 168 h, solo product, read-out: Observed efficacy
Alternaria solani = assay: Microtest against early blight caused by Alternaria solani (Alteso); conditions: Alternaria solani, 168 h, solo product, read-out: Observed efficacy; for inhibition of growth at 4e-06 ppm: 0.000004 ppm; for inhibition of growth at 6.3e-05 ppm: 0.000063 ppm
Septoria tritici = assay: Microtest against leaf blotch on wheat caused by Septoria tritici (Septtr); conditions: Zymoseptoria tritici, 168 h, solo product, read-out: Observed efficacy; for inhibition of growth at 4e-06 ppm: 0.000004 ppm; for inhibition of growth at 1.6e-05 ppm: 0.000016 ppm
Leptosphaeria nodorum = assay: Microtest against wheat leaf spots caused by Leptosphaeria nodorum (Leptno); conditions: Parastagonospora nodorum, 168 h, solo product, read-out: Observed efficacy

| SMILES | inhibition of growth at 1 ppm (Pyricularia oryzae) [%] | inhibition of growth at 16 ppm (Phytophthora infestans) [%] | inhibition of growth at […] (Botrytis cinerea; 0.063 ppm) [%] | inhibition of growth at […] (Botrytis cinerea; 0.25 ppm) [%] | inhibition of growth at 4e-06 ppm (Alternaria solani) [%] | inhibition of growth at 6.3e-05 ppm (Alternaria solani) [%] | inhibition of growth at 4e-06 ppm (Septoria tritici) [%] | inhibition of growth at 1.6e-05 ppm (Septoria tritici) [%] | inhibition of growth at 0.016 ppm (Pyricularia oryzae) [%] | inhibition of growth at 63 ppm (Phytophthora infestans) [%] | inhibition of growth at 0.004 ppm (Alternaria solani) [%] | inhibition of growth at 0.016 ppm (Alternaria solani) [%] | inhibition of growth at […] (Leptosphaeria nodorum; 0.00025 ppm) [%] | inhibition of growth at 0.001 ppm (Septoria tritici) [%] | inhibition of growth at 6.3e-05 ppm (Septoria tritici; […]) [%] | inhibition of growth at […] (Alternaria solani; 0.00025 ppm) [%] | inhibition of growth at 0.001 ppm (Leptosphaeria nodorum) [%] | also measured |
| --- | --- | --- | --- | --- | --- | --- | --- | --- | --- | --- | --- | --- | --- | --- | --- | --- | --- | --- |
| CC(O)(Cn1cncn1)c1ccc(Oc2ccc(Cl)cc2)cc1Cl (stereo not drawn) [I-17, 2-[2-chloro-4-(4-chlorophenoxy)phenyl]-1-(1,2,4-triazol-1-yl)propan-2-ol] | 61 | 5 | 0 | 0 | 6 | 0 | 12 | 19 |  |  |  |  |  |  |  |  |  | inhibition of growth at 6.3e-05 ppm (Botrytis cinerea; 0.000063 ppm): 9%; inhibition of growth at 1.6e-05 ppm (Alternaria solani; 0.000016 ppm): 0%; inhibition of growth at 1e-06 ppm (Septoria tritici; 0.000001 ppm): 14%; inhibition of growth at 2.5e-07 ppm (Septoria tritici; […]): 10% |
| CC(O)(Cn1cncn1)c1ccc(Oc2ccc(F)cc2)cc1Cl (stereo not drawn) [I-18, 2-[2-chloro-4-(4-fluorophenoxy)phenyl]-1-(1,2,4-triazol-1-yl)propan-2-ol] | 5 | 15 | 13 | 44 |  |  |  | 4 | 1 | 19 | 0 | 7 | 26 | 4 | 0 |  |  | inhibition of growth at 6.3e-05 ppm (Leptosphaeria nodorum; 0.000063 ppm): 22% |
| CCC(Cn1cncn1)(OC)c1ccc(Oc2ccc(Cl)cc2)cc1Cl (stereo not drawn) [I-21, 1-[2-[2-chloro-4-(4-chlorophenoxy)phenyl]-2-methoxy-butyl]-1,2,4-triazole] |  |  | 18 |  |  |  | 17 |  | 1 | 29 | 5 |  | 12 |  | 25 | 2 | 22 |  |
| CCCC(Cn1cncn1)(OC)c1ccc(Oc2ccc(Cl)cc2)cc1Cl (stereo not drawn) [I-22, 1-[2-[2-chloro-4-(4-chlorophenoxy)phenyl]-2-methoxy-pentyl]-1,2,4-triazole] |  |  |  | 1 |  |  |  |  |  | 41 |  |  |  | 10 |  |  |  | inhibition of growth at 1 ppm (Botrytis cinerea; 1 ppm): 34%; inhibition of growth at […] (Alternaria solani; 0.063 ppm): 25%; inhibition of growth at […] (Leptosphaeria nodorum; 0.063 ppm): 25% |
| C#CCC(O)(Cn1cncn1)c1ccc(Oc2ccc(Cl)cc2)cc1Cl (stereo not drawn) [I-25, 2-[2-chloro-4-(4-chlorophenoxy)phenyl]-1-(1,2,4-triazol-1-yl)pent-4-yn-2-ol] |  | 0 | 23 | 49 | 7 | 1 |  | 12 |  |  |  |  |  | 37 | 12 |  |  | inhibition of growth at 0.004 ppm (Botrytis cinerea; 0.004 ppm): 9%; inhibition of growth at 0.016 ppm (Botrytis cinerea; 0.016 ppm): 16%; inhibition of growth at 4e-06 ppm (Leptosphaeria nodorum; 0.000004 ppm): 14%; inhibition of growth at 1.6e-05 ppm (Leptosphaeria nodorum; 0.000016 ppm): 22% |
| COCC(O)(Cn1cncn1)c1ccc(Oc2ccc(F)cc2)cc1Cl (stereo not drawn) [I-27, 2-[2-chloro-4-(4-fluorophenoxy)phenyl]-1-methoxy-3-(1,2,4-triazol-1-yl)propan-2-ol] | 29 |  | 22 |  |  |  |  | 7 |  | 31 | 0 | 12 | 8 | 9 | 6 | 4 | 6 | inhibition of growth at 0.001 ppm (Alternaria solani; 0.001 ppm): 0%; inhibition of growth at 0.004 ppm (Leptosphaeria nodorum; 0.004 ppm): 15%; inhibition of growth at 0.016 ppm (Leptosphaeria nodorum; 0.016 ppm): 24% |
